In patent US8802597B2, “Herbicidal pyrimidines” (E I du Pont de Nemours and Company, priority 2003, dated 2014):

Tests used:
Assay in all cases: Test G pre/postemergence
Type in all cases: in vivo
[1] = test system: spanishneedles (Bidens bipinnata); conditions: Preemergence
Summary of the method: (§1)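 Visual scores from 0 (no effect) to 100 (complete control) were assigned relative to untreated controls 12 to 21 days after treatment. Compounds, formulated in a non-phytotoxic solvent mixture with surfactant, were applied preemergence to planted seed or postemergence to plants at the 1- to 4-leaf stage (2 to 18 cm).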

[2] = test system: dallisgrass (Paspalum dilatatum)
Summary of the method: as §1

[3] = test system: broadleaf signalgrass (Brachiaria platyphylla)
Summary of the method: as §1

[4] = test system: large crabgrass (Digitaria sanguinalis)
Summary of the method: as §1

[5] = test system: pitted morningglory (Ipomoea lacunosa)
Summary of the method: as §1

[6] = test system: annual bluegrass (Poa annua)
Summary of the method: as §1

[7] = test system: barnyardgrass (Echinochloa crus-galli)
Summary of the method: as §1

[8] = test system: common sowthistle (Sonchus oleraceous)
Summary of the method: as §1

kochia (Kochia scoparia) = test system: kochia (Kochia scoparia)
Summary of the method: as §1

[9] = test system: common purslane (Portulaca oleracea)
Summary of the method: as §1

[10] = test system: purple nutsedge (Cyperus rotundus)
Summary of the method: as §1

[11] = Preemergence, 62 g ai/ha, scale 0-100
[12] = Preemergence, 125 g ai/ha, scale 0-100
[13] = Preemergence, 250 g ai/ha, scale 0-100
[14] = Preemergence, 500 g ai/ha, scale 0 to 100
[15] = Postemergence, 250 g ai/ha, scale 0 to 100
[16] = Postemergence, 16 g ai/ha, scale 0 to 100
[17] = Postemergence, 31 g ai/ha, scale 0 to 100
[18] = Postemergence, 62 g ai/ha, scale 0 to 100
[19] = Postemergence, 125 g ai/ha, scale 0 to 100
[20] = Preemergence, 16 g ai/ha, scale 0-100
[21] = Preemergence, 31 g ai/ha, scale 0-100

## COC(=O)c1nc(C2CC2)nc(N)c1Cl [Compound 9, methyl 6-amino-5-chloro-2-cyclopropyl-4-pyrimidinecarboxylate]
[1]; 62 g ai/ha, scale 0-100
  Plant response rating, Spanishneedles: 100
[1]; 125 g ai/ha, scale 0-100
  Plant response rating, Spanishneedles: 100
[1]; 250 g ai/ha, scale 0-100
  Plant response rating, Spanishneedles: 100
[1]; 500 g ai/ha, scale 0 to 100
  Plant response rating, Spanishneedles: 100
[2]; [11]
  Plant response rating, Dallisgrass: 10
[2]; [12]
  Plant response rating, Dallisgrass: 70
[2]; [13]
  Plant response rating, Dallisgrass: 80
[2]; [14]
  Plant response rating, Dallisgrass: 100
[3]; [11]
  Plant response rating, Signalgrass: 20
[3]; [12]
  Plant response rating, Signalgrass: 80
[3]; [13]
  Plant response rating, Signalgrass: 80
[3]; [14]
  Plant response rating, Signalgrass: 100
[4]; [11]
  Plant response rating, Crabgrass, Large: 70
[4]; [12]
  Plant response rating, Crabgrass, Large: 90
[4]; [13]
  Plant response rating, Crabgrass, Large: 90
[4]; [14]
  Plant response rating, Crabgrass, Large: 100
[5]; [11]
  Plant response rating, Morningglory: 70
[5]; [12]
  Plant response rating, Morningglory: 100
[5]; [13]
  Plant response rating, Morningglory: 100
[5]; [14]
  Plant response rating, Morningglory: 100
[6]; [11]
  Plant response rating, Bluegrass: 10
[6]; [12]
  Plant response rating, Bluegrass: 30
[6]; [13]
  Plant response rating, Bluegrass: 95
[6]; [14]
  Plant response rating, Bluegrass: 100
[7]; [11]
  Plant response rating, Barnyardgrass: 30
[7]; [12]
  Plant response rating, Barnyardgrass: 70
[7]; [13]
  Plant response rating, Barnyardgrass: 85
[7]; [14]
  Plant response rating, Barnyardgrass: 95

## Nc1nc(C2CC2)nc(C(=O)OCc2ccccc2)c1Br [Compound 22, phenylmethyl 6-amino-5-bromo-2-cyclopropyl-4-pyrimidinecarboxylate]
[8]; [15]
  Plant response rating, Sowthistle: 100
[8]; [16]
  Plant response rating, Sowthistle: 75
[8]; [17]
  Plant response rating, Sowthistle: 85
[8]; [18]
  Plant response rating, Sowthistle: 95
[8]; [19]
  Plant response rating, Sowthistle: 100
[8]; [20]
  Plant response rating, Sowthistle: 35
[8]; [21]
  Plant response rating, Sowthistle: 75
[8]; [11]
  Plant response rating, Sowthistle: 90
[8]; [12]
  Plant response rating, Sowthistle: 100
[8]; [13]
  Plant response rating, Sowthistle: 100
[2]; [15]
  Plant response rating, Dallisgrass: 75
[2]; [16]
  Plant response rating, Dallisgrass: 0
[2]; [17]
  Plant response rating, Dallisgrass: 0
[2]; [18]
  Plant response rating, Dallisgrass: 15
[2]; [19]
  Plant response rating, Dallisgrass: 25
[2]; [20]
  Plant response rating, Dallisgrass: 0
[2]; [21]
  Plant response rating, Dallisgrass: 0
[2]; [11]
  Plant response rating, Dallisgrass: 0
[2]; [12]
  Plant response rating, Dallisgrass: 40
[2]; [13]
  Plant response rating, Dallisgrass: 50
[3]; [15]
  Plant response rating, Signalgrass: 85
[3]; [16]
  Plant response rating, Signalgrass: 5
[3]; [17]
  Plant response rating, Signalgrass: 15
[3]; [18]
  Plant response rating, Signalgrass: 25
[3]; [19]
  Plant response rating, Signalgrass: 50
[3]; [20]
  Plant response rating, Signalgrass: 0
[3]; [21]
  Plant response rating, Signalgrass: 0
[3]; [11]
  Plant response rating, Signalgrass: 0
[3]; [12]
  Plant response rating, Signalgrass: 10
[3]; [13]
  Plant response rating, Signalgrass: 80
Kochia (Kochia scoparia); [15]
  Plant response rating, Kochia: 100
Kochia (Kochia scoparia); [16]
  Plant response rating, Kochia: 98
Kochia (Kochia scoparia); [17]
  Plant response rating, Kochia: 98
Kochia (Kochia scoparia); [18]
  Plant response rating, Kochia: 98
Kochia (Kochia scoparia); [19]
  Plant response rating, Kochia: 100
Kochia (Kochia scoparia); [20]
  Plant response rating, Kochia: 35
Kochia (Kochia scoparia); [21]
  Plant response rating, Kochia: 70
Kochia (Kochia scoparia); [11]
  Plant response rating, Kochia: 98
Kochia (Kochia scoparia); [12]
  Plant response rating, Kochia: 100
Kochia (Kochia scoparia); [13]
  Plant response rating, Kochia: 100
[4]; [15]
  Plant response rating, Crabgrass, Large: 85
[4]; [16]
  Plant response rating, Crabgrass, Large: 15
[4]; [17]
  Plant response rating, Crabgrass, Large: 35
[4]; [18]
  Plant response rating, Crabgrass, Large: 50
[4]; [19]
  Plant response rating, Crabgrass, Large: 85
[4]; [20]
  Plant response rating, Crabgrass, Large: 0
[4]; [21]
  Plant response rating, Crabgrass, Large: 40
[4]; [11]
  Plant response rating, Crabgrass, Large: 40
[4]; [12]
  Plant response rating, Crabgrass, Large: 80
[4]; [13]
  Plant response rating, Crabgrass, Large: 80
[5]; [15]
  Plant response rating, Morningglory: 100
[5]; [16]
  Plant response rating, Morningglory: 50
[5]; [17]
  Plant response rating, Morningglory: 85
[5]; [18]
  Plant response rating, Morningglory: 85
[5]; [19]
  Plant response rating, Morningglory: 95
[5]; [20]
  Plant response rating, Morningglory: 20
[5]; [21]
  Plant response rating, Morningglory: 50
[5]; [11]
  Plant response rating, Morningglory: 60
[5]; [12]
  Plant response rating, Morningglory: 90
[5]; [13]
  Plant response rating, Morningglory: 90
[9]; [15]
  Plant response rating, Purslane: 98
[9]; [16]
  Plant response rating, Purslane: 50
[9]; [17]
  Plant response rating, Purslane: 55
[9]; [18]
  Plant response rating, Purslane: 85
[9]; [19]
  Plant response rating, Purslane: 95
[9]; [20]
  Plant response rating, Purslane: 0
[9]; [21]
  Plant response rating, Purslane: 0
[9]; [11]
  Plant response rating, Purslane: 50
[9]; [12]
  Plant response rating, Purslane: 70
[9]; [13]
  Plant response rating, Purslane: 75
[6]; [15]
  Plant response rating, Bluegrass: 75
[6]; [16]
  Plant response rating, Bluegrass: 0
[6]; [17]
  Plant response rating, Bluegrass: 0
[6]; [18]
  Plant response rating, Bluegrass: 15
[6]; [19]
  Plant response rating, Bluegrass: 40
[6]; [20]
  Plant response rating, Bluegrass: 0
[6]; [21]
  Plant response rating, Bluegrass: 0
[6]; [11]
  Plant response rating, Bluegrass: 0
[6]; [12]
  Plant response rating, Bluegrass: 30
[6]; [13]
  Plant response rating, Bluegrass: 60
[10]; [15]
  Plant response rating, Nutsedge, Purple: 15
[10]; [16]
  Plant response rating, Nutsedge, Purple: 0
[10]; [17]
  Plant response rating, Nutsedge, Purple: 0
[10]; [18]
  Plant response rating, Nutsedge, Purple: 0
[10]; [19]
  Plant response rating, Nutsedge, Purple: 0
[10]; [20]
  Plant response rating, Nutsedge, Purple: 0
[10]; [21]
  Plant response rating, Nutsedge, Purple: 0
[10]; [11]
  Plant response rating, Nutsedge, Purple: 30
[10]; [12]
  Plant response rating, Nutsedge, Purple: 40
[10]; [13]
  Plant response rating, Nutsedge, Purple: 50
[7]; [15]
  Plant response rating, Barnyardgrass: 85
[7]; [16]
  Plant response rating, Barnyardgrass: 0
[7]; [17]
  Plant response rating, Barnyardgrass: 0
[7]; [18]
  Plant response rating, Barnyardgrass: 15
[7]; [19]
  Plant response rating, Barnyardgrass: 25
[7]; [20]
  Plant response rating, Barnyardgrass: 10
[7]; [21]
  Plant response rating, Barnyardgrass: 20
[7]; [11]
  Plant response rating, Barnyardgrass: 30
[7]; [12]
  Plant response rating, Barnyardgrass: 70
[7]; [13]
  Plant response rating, Barnyardgrass: 80
